According to patent US12110278B2, “Selective JAK2 pseudokinase ligands and methods of use” (YALE UNIVERSITY, priority 2020, dated 2024):

What was measured:
[1] = target: JAK2 JH2 (Homo sapiens (Human), UniProt O60674); assay: Competitive fluorescence polarization (FP) assay, JAK2 JH2; conditions: read-out: Binding Affinity for JAK2 JH2 (Kd) from the FP Assay; wild-type JH2, FP, pH 8.0; mean ± SEM
Method: In a flat black bottom 96 well plate (Corning), the buffer (20 mM Tris-HCl pH 8.0, 150 mM NaCl, 20% Glycerol, 0.5 mM TCEP, 0.01% Tween 20) is added—200 μL to column 1 (blank), 295 μL to column 2, 150 μL to columns 3-12. […] 150 μL was transferred, using a multichannel pipette, from column 2 to 3, 3 to 4, 4 to 5, until reaching the last column to make a serial dilutions (1:2). […] Experiments were carried out by quadruplicates in three independent experiments. The data provided a typical saturation-binding curve and Kd was calculated fitting the results to the Hill equation using Prism 7.
In a flat black bottom 96 well plate (Corning), 200 μL of FP buffer were added to column 1 (blank), 150 μL to column 2, and 140 μL to columns 3-12. […] 2 μL of inhibitor in DMSO at different concentrations were added from column 4 to 12. […] Experiments were carried out by quadruplicates in three independent experiments. Data were analyzed by a least-squares non-linear fit, generated using Prism 7 in order to determine the compound's IC50. Kd values for each inhibitor are calculated using the following equation based on the IC50, Kd of the tracer (Kd^t), total (Lt) and bound (Lb) tracer, as well as total protein concentration (Pt)^13

[2] = cited from earlier work
[3] = target: WT JAK2 JH2 (Homo sapiens (Human), UniProt O60674); conditions: read-out: Binding constant with WT JAK2 JH2; cited from earlier work
WT JAK2 JH2, sequence (O60674 545-809): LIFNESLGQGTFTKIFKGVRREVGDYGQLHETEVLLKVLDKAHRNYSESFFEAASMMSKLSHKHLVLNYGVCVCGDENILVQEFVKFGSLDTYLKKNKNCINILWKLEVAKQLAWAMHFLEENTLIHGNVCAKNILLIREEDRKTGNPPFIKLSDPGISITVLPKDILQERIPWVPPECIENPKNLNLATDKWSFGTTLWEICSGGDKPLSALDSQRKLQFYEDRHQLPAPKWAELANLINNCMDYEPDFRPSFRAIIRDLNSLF

[4] = target: JAK2 JH2 V617F mutant (Homo sapiens (Human), UniProt O60674, V617F); conditions: cited from earlier work
JAK2 JH2 V617F mutant, sequence (O60674 545-809 V617F): as the sequence (O60674 545-809) above, with V73F counted along it

JAK2 JH2, sequence (O60674 536-812 W659A/W777A/F794H): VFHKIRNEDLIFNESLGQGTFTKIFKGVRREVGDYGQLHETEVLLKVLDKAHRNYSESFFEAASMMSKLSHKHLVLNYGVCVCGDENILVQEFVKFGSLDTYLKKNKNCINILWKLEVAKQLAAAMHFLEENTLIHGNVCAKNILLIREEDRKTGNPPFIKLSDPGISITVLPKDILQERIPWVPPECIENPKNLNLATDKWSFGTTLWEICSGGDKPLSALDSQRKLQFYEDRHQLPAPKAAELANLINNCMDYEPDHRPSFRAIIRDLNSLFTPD

## Nc1nc(Nc2ccc(S(N)(=O)=O)cc2)nn1Cc1c(F)cccc1F [Compound 2, 4-((5-amino-1-(2,6-difluorobenzyl)-1H-1,2,4-triazol-3-yl)amino)benzenesulfonamide]
[1]
  Kd: 16.7 µM

## c1cocn1 [oxazole]
[2]
  octanol/water log P: 0.12

## Nc1nc(Nc2ccc(S(N)(=O)=O)cc2)nn1C(=O)Nc1cccnc1 [Compound 7, 5-amino-N-(pyridin-3-yl)-3((4-sulfamoylphenyl)amino)-1H-1,2,4-triazole-1-carboxamide]
[1]
  Kd: 12.3 µM

## Nc1nc(Nc2ccc(S(N)(=O)=O)cc2)nn1C(=O)Nc1ccccc1 [Compound 4]
[1]
  Kd: 4.7 µM

## N#Cc1ccc(Nc2nc(N)n(C(=O)Nc3cccc(OCC(=O)O)c3)n2)cc1 [Compound 11, 2-(3-(5-amino-3((4-cyanophenyl)amino)-1H-1,2,4-triazole-1-carboxamido)phenoxy)acetic acid]
[1]
  Kd: 4 µM

## Nc1nc(Nc2ccc(S(N)(=O)=O)cc2)nn1C(=O)Nc1ccc(-c2nnc(C(=O)O)o2)cc1 [Compound 14, 5-(4-(5-amino-3((4-sulfamoylphenyl)amino)-1H-1,2,4-triazole-1-carboxamido)phenyl)-1,3,4-oxadiazole-2-carboxylic acid]
[1]
  Kd: 7 ± 0.1 µM

## Nc1nc(Nc2ccc(S(N)(=O)=O)cc2)nn1C(=O)Nc1ccc(-c2ccc(C(=O)O)o2)cc1 [Compound 13, 5-(4-(5-amino-3((4-sulfamoylphenyl)amino)-1H-1,2,4-triazole-1-carboxamido)phenyl)furan-2-carboxylic acid]
[1]
  Kd: 0.439 ± 0.064 µM

## c1cscn1 [thiazole]
[2]
  octanol/water log P: 0.44

## Nc1nc(Nc2ccc(S(N)(=O)=O)cc2)nn1C(=O)Nc1ccccn1 [Compound 6]
[1]
  Kd: 30.5 ± 3.6 µM

## c1ccsc1 [thiophene]
[2]
  octanol/water log P: 1.81

## Nc1ncnc2c1ncn2[C@@H]1O[C@H](COP(=O)(O)OP(=O)(O)OP(=O)(O)O)[C@@H](O)[C@H]1O [ATP]
[3]
  Kd: 1.3 µM
[4]
  Kd: 1.3 µM

## CN(C(=O)n1nc(Nc2ccc(S(N)(=O)=O)cc2)nc1N)c1ccccc1 [Compound 5, 5-amino-N-methyl-N-phenyl-3-((4-sulfamoylphenyl)amino)-1H-1,2,4-triazole-1-carboxamide]
[1]
  Kd: 47.8 ± 9.2 µM

## c1ccoc1 [furan]
[2]
  octanol/water log P: 1.34
